Source: paper PMC4357715, “The beta hairpin structure within ribosomal protein S5 mediates interplay between domains II and IV and regulates HCV IRES function” (Nucleic Acids Research, 2015)

Legend:
HCV IRES = assay: Ribosomal assembly assay on HCV IRES in RRL; format: biochemical, Hepatitis C Virus; details: wild-type 32P-labelled HCV IRES RNA; 2 mM GMP-PNP or 20 mM cycloheximide
Method: ^32P-labelled wild type or mutant HCV IRES RNA (3 × 10^5 c.p.m.) was added to 25 μl of translation reaction containing 17.5 μl of rabbit reticulocyte lysate (RRL). The reactions were incubated at 30°C for 15 min and diluted to 150 μl with ice cold gradient buffer (20 mM Tris–HCl pH 7.5, 100 mM KCl, 3 mM MgCl2, 1 mM Dithiothreitol (DTT)) and overlaid in 5–30% sucrose gradient. The ribosomal complexes were separated by ultracentrifuge for 3 h at 30 000 rpm at 4°C in TH-641 rotor (Thermo Scientific). Fractions (330 μl) were manually collected from the top of the tube and radioactivity was measured in a liquid scintillation counter. To validate the peaks, in vitro translation was performed in presence of 2 mM 5′-guanylyl imidodiphosphate (GMP-PNP) or 20 mM of cycloheximide and peaks were resolved on sucrose gradient.
We confirmed the 48S and 80S peaks in the ribosome assembly profile by using GMPPNP and cycloheximide respectively. As expected GMPPNP and cycloheximide stalled translation at the 48S and 80S stages, respectively (Figure 3A).
Figure 3. Ribosome assembly on wild type and mutant HCV IRES. (A) Ribosome assembly on wild-type ^32P-labelled HCV IRES RNA in the presence of either cycloheximide or GMPPNP. […] Different fractions were collected and the radioactivity associated with each fraction was measured. […]

[1] = system: global protein synthesis in Huh7 cells; assay: 35S-Methionine metabolic labelling; format: cell-based; details: cycloheximide 100 μg/ml, positive control
Method: Forty-eight hours after transfection, medium was replaced with serum free DMEM lacking methionine and cysteine (Sigma) and incubated for 1 h. Then 100 μci of ^35S in vivo pro-twin label mix (BRIT) was added to each well and cells were labelled for 30 min. Cells treated with 100 μg/ml concentration of cycloheximide were taken as positive control for global translation shut down. After labelling the cells, media was removed and the cells were washed three times with ice-cold phosphate buffered saline (PBS). Cells were harvested and lysed in the 100 μl of RIPA buffer lacking SDS (50 mM Tris–HCl pH 7.4, 150 mM NaCl, 1 mM EDTA, 1% NP-40, 0.25% sodiumdeoxycholate) containing protease inhibitors (complete EDTA-free protease inhibitor, Roche). The protein concentration of the lysate was then estimated by Bradford assay. Twenty-five micrograms of protein from each sample was mixed with 0.1 mg BSA and ice-cold TCA was added to a final concentration of 20%. The samples were incubated for 30 min on ice and loaded on prewet (with 20% TCA) glass microfibre filters (Whatmann). The filters were washed with 1 ml of 20% TCA twice and once with 1 ml of 100% ethanol. The filters were then incubated overnight with 4 ml of scintillation liquid and counts were taken.
Figure 6. Role of RPS5 in HCV translation and replication. […] Huh7 cells were transfected with siNSP RNA or siRPS5 RNA. […]

Compound | stage at which translation is stalled (HCV IRES) [S] | reduction of protein levels (35S-methionine incorporation) [1] [%]
Nc1nc2c(ncn2[C@@H]2O[C@H](COP(=O)(O)OP(=O)(O)NP(=O)(O)O)[C@@H](O)[C@H]2O)c(=O)[nH]1 [GMPPNP, 5′-guanylyl imidodiphosphate] | 48 | –
C[C@@H]1C[C@@H]([C@H](O)CC2CC(=O)NC(=O)C2)C(=O)[C@@H](C)C1 [cycloheximide] | 80 | ~75
